# Experimental data as given in patent US20260373135A1, “Methods of Treatment with Tradipitant” (Vanda Pharmaceuticals Inc., priority 2022, published 2026).
# Molecular target: CYP3A4 (Homo sapiens, UniProt P08684)
# Experiment: Co-administration of tradipitant with a CYP3A4 inhibitor
# Type: in vivo
# Protocol: The method may further include administering tradipitant to the individual at a dose that is determined based upon whether or not a CYP3A4 inhibitor is co-administered with the tradipitant. In a case in which a CYP3A4 inhibitor is not being co-administered to the individual, the method includes administering tradipitant to the individual in a first amount, in a manner similar to the above-described case in which the individual has a CYP3A4 genotype associated with normal metabolism of tradipitant. However, in a case in which a CYP3A4 inhibitor is co-administered with tradipitant to the individual, then the method may include administering tradipitant to the individual in a second ament, where the second amount is smaller than the first amount, in a manner similar to the above-described case in which the individual has a CYP3A4 genotype that is associated with decreased metabolism of tradipitant relative to wildtype. In certain embodiments, the CYP3A4 inhibitor may be selected from amiodarone, aprepitant, cimetidine, ciprofloxacin, clarithromycin, diltiazem, erythromycin, fluconazole, grapefruit juice, itraconazole, ketoconazole, posaconazole, voriconazole, and verapamil. In particular embodiments, the CYP3A4 inhibitor may be considered a strong CYP3A4 inhibitor, and may be selected from: clarithromycin, itraconazole, ketoconazole, and posaconazole, or from ketoconazole and grapefruit juice.
# As described above, in certain embodiments, the second, smaller amount of tradipitant may be about 60-90%, 60-85%, 60-80%, 60-75%, or 60-70% of the first amount; about 25-70%, 30-70%, 35-70%, 40-70%, 45-70%, 50-70%, 55-70%, or 60-70% of the first amount; about 35-95%, 40-90%, 50-80%, or 60-70% of the first amount; or about 66-68% of the first amount. The first amount is considered to be 100% of the amount that would be administered to an individual who is […] a CYP3A4 inhibitor with the tradipitant.
# Therefore, the identification of an individual in need of treatment with tradipitant, who is or would be co-administered tradipitant and the CYP3A4 inhibitor, enables dosing with tradipitant in a manner that facilitates the desired exposure level of the patient to the parent compound and any active metabolites thereof. […]
# [1] = co-administration with a CYP3A4 inhibitor
# Sequence of CYP3A4 (P08684 whole entry): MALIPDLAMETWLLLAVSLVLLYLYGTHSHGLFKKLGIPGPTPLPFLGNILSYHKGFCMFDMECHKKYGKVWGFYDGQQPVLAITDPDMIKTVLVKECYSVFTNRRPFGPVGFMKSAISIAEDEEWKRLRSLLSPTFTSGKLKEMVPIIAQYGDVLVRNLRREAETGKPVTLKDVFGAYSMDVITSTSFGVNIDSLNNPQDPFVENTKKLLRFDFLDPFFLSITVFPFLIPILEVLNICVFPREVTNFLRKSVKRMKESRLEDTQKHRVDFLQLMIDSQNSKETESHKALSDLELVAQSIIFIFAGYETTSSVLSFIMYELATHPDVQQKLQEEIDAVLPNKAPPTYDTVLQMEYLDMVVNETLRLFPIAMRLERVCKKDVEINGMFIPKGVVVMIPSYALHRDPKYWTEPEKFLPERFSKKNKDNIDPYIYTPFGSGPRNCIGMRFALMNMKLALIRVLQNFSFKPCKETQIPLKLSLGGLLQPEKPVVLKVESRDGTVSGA
structure (smiles),measurement,setting,value
"O=C(c1ccccc1Cl)c1cccnc1-c1nnn(Cc2cc(C(F)(F)F)cc(C(F)(F)F)c2)c1-c1ccncc1 [tradipitant, {2-[1-(3,5-Bistrifluoromethylbenzyl)-5-pyridin-4-yl-1H-[1,2,3]triazol-4-yl]-pyridin-3-yl}-(2-chlorophenyl)-methanone]",exposure to tradipitant with CYP3A4 inhibitors,"co-administration with CYP3A4 inhibitors, particularly strong",increased exposure to tradipitant
same,decrease in apparent clearance,[1],about 26.3%
same,increase in AUC,[1],about 36%
same,increase in Cmax,[1],about 26%
